# Measurements: patent publication US6723753B2, “Substituted n-benzyl-n-phenyl aminoalcohol compounds useful for inhibiting cholesteryl ester transfer protein activity” (Pharmacia Corporation, priority 2002, dated 2004)
# Read-outs that look alike come from different tables or passages of the source.
# Target: T1, CETP (Homo sapiens, UniProt P11597)
# T1 sequence (P11597 18-493): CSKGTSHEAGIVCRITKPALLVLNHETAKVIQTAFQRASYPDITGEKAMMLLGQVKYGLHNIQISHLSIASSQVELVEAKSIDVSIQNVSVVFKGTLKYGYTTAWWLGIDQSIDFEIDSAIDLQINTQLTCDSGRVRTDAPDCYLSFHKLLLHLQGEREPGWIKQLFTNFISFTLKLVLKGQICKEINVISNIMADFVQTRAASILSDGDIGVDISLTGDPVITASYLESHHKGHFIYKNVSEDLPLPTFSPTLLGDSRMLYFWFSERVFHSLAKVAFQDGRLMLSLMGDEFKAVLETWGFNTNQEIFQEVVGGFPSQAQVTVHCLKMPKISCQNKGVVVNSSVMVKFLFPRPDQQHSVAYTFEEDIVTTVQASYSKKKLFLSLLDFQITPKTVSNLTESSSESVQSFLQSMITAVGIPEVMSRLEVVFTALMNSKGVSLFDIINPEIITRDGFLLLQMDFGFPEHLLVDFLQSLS
# Experiment: Assay of CETP Inhibition using Purified Components (Reconstituted Buffer Assay)
# Assay type: biochemical
# Parameters: made in house; host or cells: CHO cells (serum-free conditioned medium)
# Conditions: transfer of [3H]CE from HDL to LDL
# How it was run: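 Purified human recombinant CETP from transfected CHO cells was incubated with [^3H]CE-labeled HDL donor and LDL acceptor in Tris pH 7.4/NaCl/EDTA/1% BSA buffer for 2 h at 37 °C. LDL was then precipitated with dextran sulfate/MgCl2, filtered, and counted by liquid scintillation to give IC50 for CE transfer.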
# [1] = Inhibition of CETP activity in reconstituted buffer assay, read-out: IC50
# [2] = IC50, Inhibition of CETP activity in reconstituted buffer assay
IC50 [1] [µM],Structure (SMILES),IC50 [2] [µM]
1.2,CCC(=O)c1ccc(Oc2cccc(N(Cc3cccc(OC(F)(F)C(F)F)c3)CC(O)C(F)(F)F)c2)cc1 (stereo not shown) [Example 693],
17,"FC(CN(Cc1cccc(OC(F)(F)C(F)F)c1)c1cccc(Oc2ccccc2)c1)C(F)(F)F (stereo not shown) [Example 1669, N-(3-phenoxyphenyl)-N-(3,3,3,2-tetrafluoropropyl)-3-(1,1,2,2-tetrafluoroethoxy)benzenemethanamine]",
1.8,CCc1cc(Oc2cccc(N(Cc3cccc(OC(F)(F)C(F)F)c3)C(CO)C(F)(F)F)c2)ccc1Cl (stereo not shown) [Example 1670],
11,"FC(F)(F)CCCN(Cc1cccc(OC(F)(F)F)c1)c1cccc(Oc2ccccc2)c1 [Example 1671, N-(3-phenoxyphenyl)-N-(4,4,4-trifluorobutyl)-3-(trifluoromethoxy) benzenemethanamine]",
> 100,OC(CN(Cc1ccc(C(F)(F)F)cc1)Cc1cccc(F)c1)C(F)(F)F (stereo not shown) [compound 169],
> 100,OC(CN(Cc1ccc(F)cc1)Cc1ccc(C(F)(F)F)cc1)C(F)(F)F (stereo not shown) [compound 170],
> 100,OC(CN(Cc1ccc(C(F)(F)F)cc1)Cc1ccccc1F)C(F)(F)F (stereo not shown) [compound 171],
7,OC(CN(Cc1ccc(C(F)(F)F)cc1)Cc1cccc(Cl)c1)C(F)(F)F (stereo not shown) [compound 172],
20,OC(CN(Cc1ccc(Cl)cc1)Cc1ccc(C(F)(F)F)cc1)C(F)(F)F (stereo not shown) [compound 173],
> 100,OC(CN(Cc1ccc(C(F)(F)F)cc1)Cc1ccccc1Cl)C(F)(F)F (stereo not shown) [compound 174],
> 100,OC(CN(Cc1cccc(Cl)c1)Cc1ccccc1C(F)(F)F)C(F)(F)F (stereo not shown) [compound 175],
> 100,OC(CN(Cc1ccc(Cl)cc1)Cc1ccccc1C(F)(F)F)C(F)(F)F (stereo not shown) [compound 176],
> 100,OC(CN(Cc1ccccc1Cl)Cc1ccccc1C(F)(F)F)C(F)(F)F (stereo not shown) [compound 177],
> 100,Cc1ccc(CN(Cc2cccc(F)c2)CC(O)C(F)(F)F)cc1 (stereo not shown) [compound 178],
> 100,Cc1ccc(CN(Cc2ccc(F)cc2)CC(O)C(F)(F)F)cc1 (stereo not shown) [compound 179],
> 100,Cc1cccc(CN(Cc2cccc(F)c2)CC(O)C(F)(F)F)c1 (stereo not shown) [compound 180],
> 100,Cc1ccc(CN(Cc2ccccc2F)CC(O)C(F)(F)F)cc1 (stereo not shown) [compound 181],
> 100,Cc1cccc(CN(Cc2ccc(F)cc2)CC(O)C(F)(F)F)c1 (stereo not shown) [compound 182],
> 100,Cc1cccc(CN(Cc2ccccc2F)CC(O)C(F)(F)F)c1 (stereo not shown) [compound 183],
> 100,OC(CN(Cc1cccc(C(F)(F)F)c1)Cc1ccccc1F)C(F)(F)F (stereo not shown) [compound 184],
15,OC(CN(Cc1cccc(Cl)c1)Cc1cccc(C(F)(F)F)c1)C(F)(F)F (stereo not shown) [compound 185],
15,OC(CN(Cc1ccc(Cl)cc1)Cc1cccc(C(F)(F)F)c1)C(F)(F)F (stereo not shown) [compound 186],
> 100,OC(CN(Cc1cccc(C(F)(F)F)c1)Cc1ccccc1Cl)C(F)(F)F (stereo not shown) [compound 187],
> 100,OC(CN(Cc1cccc(F)c1)Cc1ccccc1C(F)(F)F)C(F)(F)F (stereo not shown) [compound 188],
> 100,OC(CN(Cc1ccc(F)cc1)Cc1ccccc1C(F)(F)F)C(F)(F)F (stereo not shown) [compound 189],
> 100,OC(CN(Cc1cccc(F)c1)Cc1cccc(C(F)(F)F)c1)C(F)(F)F (stereo not shown) [compound 190],
> 100,OC(CN(Cc1ccc(F)cc1)Cc1cccc(C(F)(F)F)c1)C(F)(F)F (stereo not shown) [compound 191],

# Second part, the molecule before the results:
Structure (SMILES),IC50 [1] [µM],IC50 [2] [µM]
"OC(CCN(Cc1cccc(OC(F)(F)F)c1)Cc1cccc(OC(F)(F)F)c1)C(F)(F)F (stereo not shown) [Example 611, 4-[bis-[[3-(trifluoromethoxy)phenyl]methyl]amino]-1,1,1-trifluoro-2-butanol]",12,
"CN(C)C(=O)c1cccc(CN(CC(O)C(F)(F)F)c2cccc(Oc3ccccc3)c2)c1 (stereo not shown) [Example 612, N,N-dimethyl-3-[[(3-phenoxyphenyl)(3,3,3-trifluoro-2-hydroxypropyl)amino]methyl]benzamide]",35,
"CC(C)(O)c1cccc(CN(CC(O)C(F)(F)F)c2cccc(Oc3ccccc3)c2)c1 (stereo not drawn) [Example 617, α, α-dimethyl-3-[[(3-phenoxyphenyl)(3,3,3-trifluoro-2-hydroxypropyl)amino]methyl]benzenemethanol]",7.9,
"CCC(=O)c1cccc(CN(CC(O)C(F)(F)F)c2cccc(Oc3ccccc3)c2)c1 (stereo not shown) [Example 620, 1-[3-[[(3-phenoxyphenyl)(3,3,3-trifluoro-2-hydroxypropyl)-amino]methyl]phenyl]-1-propanone]",5,
OC(CN(Cc1cccc(C(F)(F)F)c1)c1ccc(C#Cc2ccccc2)c(C(F)(F)F)c1)C(F)(F)F (stereo not shown) [Example 622],3.5,
"OC(CN(Cc1cccc(C(F)(F)F)c1)c1ccc(Br)c(C(F)(F)F)c1)C(F)(F)F (stereo not shown) [Example 625, 3-[4-bromo-3-(trifluoromethyl)phenyl[[3-(trifluoromethyl)-phenyl]methyl]amino]-1,1,1-trifluoro-2-propanol]",8.3,
"CC(CCc1cccc(OC(F)(F)F)c1)N(CC(O)C(F)(F)F)c1cccc(Oc2ccccc2)c1 (stereo not shown) [Example 626, 3-[[1-methyl-3-[3-(trifluoromethoxy)phenyl]propyl](3-phenoxyphenyl)amino]-1,1,1-trifluoro-2-propanol]",30,
"COCc1cccc(CN(CC(O)C(F)(F)F)c2cccc(Oc3ccccc3)c2)c1 (stereo not shown) [Example 627, 3-[[(3-phenoxyphenyl)(3,3,3-trifluoro-2-hydroxypropyl)amino]methyl]methoxymethylbenzene]",4.1,
"CCN(CC)c1ccc(CN(CC(O)C(F)(F)F)c2cccc(Oc3ccccc3)c2)cc1 (stereo not shown) [Example 631, 3-[(3-phenoxyphenyl)[[4-(N,N-diethylamino)phenyl]methyl]amino]-1,1,1-trifluoro-2-propanol]",> 100,
"OC(CN(Cc1cccc(OC(F)(F)F)c1)c1nc(Cl)nc(Oc2ccc(F)cc2)n1)C(F)(F)F (stereo not shown) [Example 632, N-[2-chloro-6-(p-fluorophenoxy)-1,3,5-triazin-4-yl]-3-[[[3-(trifluoromethoxy)phenyl]methyl]amino]-1,1,1-trifluoro-2-propanol]",6.8,
"Cc1ccc(Oc2cccc(N(Cc3cccc(OC(F)(F)F)c3)CC(O)C(F)(F)F)c2)cn1 (stereo not shown) [Example 633, 3-[[3-(2-methyl-5-pyridyloxy)phenyl][[3-(trifluoromethoxy)phenyl]methyl]-amino]-1,1,1-trifluoro-2-propanol]",3.1,
"OC(CN(Cc1cccc(OC(F)(F)F)c1)c1cccc(Cc2cccc(N(Cc3cccc(OC(F)(F)F)c3)CC(O)C(F)(F)F)c2)c1)C(F)(F)F (stereo not shown) [Example 665, 1,1′-[methylenebis[3,1-phenylene[[[3-(trifluoromethoxy)phenyl]methyl]imino]]]bis[3,3,3-trifluoro-2-propanol]]",80,
COc1ccccc1N(Cc1ccc(C)cc1)CC(O)C(F)(F)F (stereo not shown) [Example 667],> 100,
COc1ccccc1N(Cc1cccc(C)c1)CC(O)C(F)(F)F (stereo not shown) [Example 668],> 100,
COc1ccccc1N(Cc1cccc(C(F)(F)F)c1)CC(O)C(F)(F)F (stereo not shown) [Example 669],> 100,
Cc1ccc(CN(CC(O)C(F)(F)F)c2ccccc2C(F)(F)F)cc1 (stereo not shown) [Example 673],> 100,

Structure (SMILES),IC50 [1] [µM],IC50 [2] [µM]
COc1ccc(Oc2cccc(CN(CC(O)C(F)(F)F)c3cccc(F)c3)c2)cc1 (stereo not shown) [Example 675],> 100,
OC(CN(Cc1cccc(Oc2ccc(Cl)cc2)c1)c1cccc(F)c1)C(F)(F)F (stereo not shown) [Example 676],> 100,
OC(CN(Cc1cc(C(F)(F)F)cc(C(F)(F)F)c1)c1cccc(F)c1)C(F)(F)F (stereo not shown) [Example 677],> 100,
Cc1cccc(CN(CC(O)C(F)(F)F)c2cccc(F)c2F)c1 (stereo not shown) [Example 678],> 100,
Cc1ccc(CN(CC(O)C(F)(F)F)c2cccc(C(F)(F)F)c2F)cc1 (stereo not shown) [Example 679],> 100,
Cc1cccc(CN(CC(O)C(F)(F)F)c2cccc(C(F)(F)F)c2F)c1 (stereo not shown) [Example 680],> 100,
Cc1ccc(CN(CC(O)C(F)(F)F)c2cccc(F)c2F)cc1 (stereo not shown) [Example 681],> 100,
COc1ccccc1N(Cc1ccc(C(F)(F)F)cc1)CC(O)C(F)(F)F (stereo not shown) [Example 682],> 100,
OC(CN(Cc1ccc(OCc2ccccc2)cc1)c1cccc(OC(F)(F)F)c1)C(F)(F)F (stereo not shown) [Example 683],20,
O=[N+]([O-])c1cc(Cl)ccc1CN(CC(O)C(F)(F)F)c1cccc(Oc2ccccc2)c1 (stereo not shown) [Example 684],> 100,
OC(CN(Cc1ccc(Oc2ccc(Cl)c(Cl)c2)cc1)c1cccc(Oc2ccccc2)c1)C(F)(F)F (stereo not shown) [Example 685],60,
OC(CN(Cc1ccc2c(c1)OC(F)(F)C(F)(F)O2)c1cccc(Oc2ccccc2)c1)C(F)(F)F (stereo not shown) [Example 687],,12
OC(CN(Cc1cccc(C(F)(F)F)c1)c1ccc(-c2ccccc2)cc1)C(F)(F)F (stereo not shown) [Example 689],5,
Oc1cccc(N(Cc2cccc(OC(F)(F)F)c2)CC(O)C(F)(F)F)c1 (stereo not shown) [Example 692],16,
OC(CN(Cc1cccc(OC(F)(F)F)c1)Cc1cccc(OC(F)(F)F)c1)C(F)(F)F (stereo not shown) [compound 192],,23
